{"source": "patent US11549142B2", "about": "“CETP inhibitors for therapeutic use” (Hoffmann-La Roche Inc., priority 2013, dated 2023)", "origin": "cited, not measured here", "key": {"CETP": {"molecular_target": "T1, CETP (Oryctolagus cuniculus, UniProt P22687)", "T1 construct": "host or cells: rabbits (endogenous plasma CETP)", "T1 sequence (P22687 2-497)": "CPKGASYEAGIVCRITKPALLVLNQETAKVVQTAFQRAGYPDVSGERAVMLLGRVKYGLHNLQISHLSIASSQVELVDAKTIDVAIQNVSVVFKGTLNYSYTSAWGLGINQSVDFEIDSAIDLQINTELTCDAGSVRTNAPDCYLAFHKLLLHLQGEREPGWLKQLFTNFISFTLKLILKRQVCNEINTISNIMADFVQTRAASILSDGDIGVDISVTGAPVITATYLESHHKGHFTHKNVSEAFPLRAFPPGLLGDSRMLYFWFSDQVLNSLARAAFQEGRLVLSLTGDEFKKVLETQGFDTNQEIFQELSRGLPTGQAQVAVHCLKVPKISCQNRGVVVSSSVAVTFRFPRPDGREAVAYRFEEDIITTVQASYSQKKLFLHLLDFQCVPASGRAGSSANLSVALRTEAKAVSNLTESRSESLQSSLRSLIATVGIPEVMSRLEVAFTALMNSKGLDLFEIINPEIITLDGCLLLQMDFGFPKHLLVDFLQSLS", "details": "rabbits; Shinkai et al., Kobayashi et al., Okamoto et al.; cited from earlier work"}, "[1]": {"details": "humans; de Grooth et al.; cited from earlier work"}}}
{"smiles": "CCC(CC)CC1(C(=O)Nc2ccccc2SC(=O)C(C)C)CCCCC1", "note": "[dalcetrapib, thioisobutyric acid S-(2-{[1-(2-ethyl-butyl)-cyclohexanecarbonyl]-amino}-phenyl) ester]", "values": [{"measurement": "CETP activity", "setting": "CETP", "value": "inhibitor of CETP activity"}, {"measurement": "LDL cholesterol", "setting": "[1]", "value": "decrease LDL cholesterol"}, {"measurement": "plasma HDL cholesterol", "setting": "[1]", "value": "increase plasma HDL cholesterol"}]}
